Measured values published in ChEMBL document CHEMBL1130416, “Synthesis and biological activities of (R)-5,6-dihydro-N,N-dimethyl-4H-imidazo[4,5,1-ij]quinolin-5-amine and its metabolites” (J Med Chem, 1997).

Columns and labels:
D(2) dopamine receptor [1] = target: T1, D(2) dopamine receptor (Homo sapiens, UniProt P14416)
Description: Binding affinity towards Dopamine receptor D2 by displacement of [3H]U-86170.

[2] = target: T2, 5-hydroxytryptamine receptor 1A (Homo sapiens, UniProt P08908)
T2 sequence (P08908 whole entry): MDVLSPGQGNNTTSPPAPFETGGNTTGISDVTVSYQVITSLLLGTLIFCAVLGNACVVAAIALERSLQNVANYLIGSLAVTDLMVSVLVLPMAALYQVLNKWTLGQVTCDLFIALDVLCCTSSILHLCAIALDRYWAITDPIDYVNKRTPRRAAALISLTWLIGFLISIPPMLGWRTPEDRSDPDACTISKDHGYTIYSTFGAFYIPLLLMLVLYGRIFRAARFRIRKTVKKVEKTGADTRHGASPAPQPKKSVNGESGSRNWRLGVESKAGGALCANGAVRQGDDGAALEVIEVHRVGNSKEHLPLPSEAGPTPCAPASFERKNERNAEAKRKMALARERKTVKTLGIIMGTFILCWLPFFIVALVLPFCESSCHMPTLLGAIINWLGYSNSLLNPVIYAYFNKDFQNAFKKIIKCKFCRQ
Description: Binding affinity towards Serotonin 5-hydroxytryptamine 1A receptor by displacement of [3H]-(+)-8-OH-DPAT.

D(3) dopamine receptor [3] = target: T3, D(3) dopamine receptor (Homo sapiens, UniProt P35462)
T3 sequence (P35462 whole entry): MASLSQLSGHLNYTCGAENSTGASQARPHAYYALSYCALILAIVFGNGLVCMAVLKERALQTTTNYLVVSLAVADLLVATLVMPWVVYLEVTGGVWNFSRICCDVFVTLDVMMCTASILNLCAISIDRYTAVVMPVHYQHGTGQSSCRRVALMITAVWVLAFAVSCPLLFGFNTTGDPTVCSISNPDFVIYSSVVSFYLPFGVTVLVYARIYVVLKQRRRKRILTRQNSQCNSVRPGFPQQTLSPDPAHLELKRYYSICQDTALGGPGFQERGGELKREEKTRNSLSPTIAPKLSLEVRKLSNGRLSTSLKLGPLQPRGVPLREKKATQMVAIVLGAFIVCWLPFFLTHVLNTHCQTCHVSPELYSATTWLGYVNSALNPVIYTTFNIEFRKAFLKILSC
Description: Binding affinity towards Dopamine receptor D3 by displacement of [3H](+)-7-OH-DPAT.

[4] = Metabolism of compound in human liver slices (male) ('++++' indicates largest observed peak); assay type: ADME, tissue-based
[5] = Metabolism of compound in rabbit S9 microsomes ('+''indicates <20% largest observed peak); assay type: ADME, Oryctolagus cuniculus, Microsome
Mus musculus [6] = experiment: Hypothermic effects in mice when administered subcutaneously.; assay type: functional; conditions: sc
[7] = Metabolism of compound in monkey S9 microsomes ('+++'indicates 50-80% largest observed peak); assay type: ADME, Microsome; conditions: cercopithecidae
[8] = Metabolism of compound in mini pig S9 microsomes ('++++' indicates largest observed peak); assay type: ADME, Sus scrofa, Microsome
Canis familiaris [9] = organism: Canis familiaris; experiment: Metabolism of compound in dog S9 microsomes ('++++' indicates largest observed peak); assay type: ADME, Canis lupus familiaris
Rattus norvegicus [10] = organism: Rattus norvegicus; experiment: The stability relative to the U-93385 compound.
Rattus norvegicus [11] = organism: Rattus norvegicus; experiment: Metabolism of compound in rat S9 microsomes ('++++' indicates largest observed peak); assay type: ADME
Mus musculus [12] = organism: Mus musculus; experiment: Metabolism of compound in Mouse S9 microsomes ('++++'indicates largest observed peak); assay type: ADME
[13] = Metabolism of compound in human microsomes ('++++' indicates largest observed peak); assay type: ADME, Microsome
Mus musculus [14] = experiment: Hypothermic effects in mice when administered orally.; assay type: functional; conditions: po
D(3) dopamine receptor [15] = target: T3, D(3) dopamine receptor; remark: listed apart in the source
[16] = target: T2, 5-hydroxytryptamine receptor 1A; remark: listed apart in the source
D(2) dopamine receptor [17] = target: T1, D(2) dopamine receptor; remark: listed apart in the source
Rattus norvegicus [18] = organism: Rattus norvegicus; experiment: Metabolism of compound in rat S9 microsomes; Trace; assay type: ADME
Mus musculus [19] = organism: Mus musculus; experiment: Metabolism of compound in mouse S9 microsomes ('+''indicates <20% largest observed peak); assay type: ADME
[20] = Metabolism of compound in monkey S9 microsomes ('+''indicates <20% largest observed peak); assay type: ADME, Microsome; conditions: cercopithecidae
[21] = Metabolism of compound in human liver slices (male) ('+''indicates <20% largest observed peak); assay type: ADME, tissue-based
[22] = Metabolism of compound in monkey S9 microsomes ('++''indicates 20-50% largest observed peak); assay type: ADME, Microsome; conditions: cercopithecidae
[23] = Metabolism of compound in human microsomes ('+''indicates <20% largest observed peak); assay type: ADME, Microsome
Rattus norvegicus [24] = organism: Rattus norvegicus; experiment: Metabolism of compound in rat S9 microsomes ('+''indicates <20% largest observed peak); assay type: ADME
[25] = Metabolism of compound in human liver slices (male) ('++''indicates 20-50% largest observed peak); assay type: ADME, tissue-based
[26] = Metabolism of compound in mini pig S9 microsomes ('+''indicates <20% largest observed peak); assay type: ADME, Sus scrofa, Microsome
Canis familiaris [27] = organism: Canis familiaris; experiment: Metabolism of compound in dog S9 microsomes ('++''indicates 20-50% largest observed peak); assay type: ADME, Canis lupus familiaris
[28] = Metabolism of compound in human microsomes; Trace; assay type: ADME, Microsome
Mus musculus [29] = organism: Mus musculus; experiment: Metabolism of compound in mouse S9 microsomes ('++++' indicates largest observed peak); assay type: ADME
Canis familiaris [30] = organism: Canis familiaris; experiment: Metabolism of compound in dog S9 microsomes; Trace; assay type: ADME, Canis lupus familiaris
[31] = Metabolism of compound in rabbit S9 microsomes ('++++' indicates largest observed peak); assay type: ADME, Oryctolagus cuniculus, Microsome
[32] = Metabolism of compound in monkey S9 microsomes ('++++' indicates largest observed peak); assay type: ADME, Microsome; conditions: cercopithecidae

T1 sequence (P14416 whole entry): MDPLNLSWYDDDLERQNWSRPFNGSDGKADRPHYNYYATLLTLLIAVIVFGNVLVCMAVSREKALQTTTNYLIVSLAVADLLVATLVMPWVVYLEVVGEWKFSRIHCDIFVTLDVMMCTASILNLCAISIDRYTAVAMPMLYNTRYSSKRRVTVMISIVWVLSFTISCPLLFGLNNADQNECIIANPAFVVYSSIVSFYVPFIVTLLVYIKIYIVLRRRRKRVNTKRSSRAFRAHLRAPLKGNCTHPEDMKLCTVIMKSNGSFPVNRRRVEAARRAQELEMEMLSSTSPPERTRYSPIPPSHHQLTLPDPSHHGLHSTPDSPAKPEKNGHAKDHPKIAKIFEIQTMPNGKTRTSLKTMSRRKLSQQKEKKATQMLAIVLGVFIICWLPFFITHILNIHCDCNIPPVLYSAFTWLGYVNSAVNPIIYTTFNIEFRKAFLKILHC

Compound | Ki (D(2) dopamine receptor [1]) | Ki [2] | Ki (D(3) dopamine receptor [3]) | Metabolism [5] | ED50 (Mus musculus [6]) | ED50 (Mus musculus [14]) | Ki (D(3) dopamine receptor [15]) | Ki [16] | Ki (D(2) dopamine receptor [17]) | also measured
CC(C)C[C@H]1C(=O)N2CCC[C@H]2[C@]2(O)O[C@](NC(=O)[C@@H]3C=C4c5cccc6[nH]c(Br)c(c56)C[C@H]4N(C)C3)(C(C)C)C(=O)N12 [BROMOCRIPTINE] | 10 nM | 24 nM | 87 nM |  |  |  |  |  |  | 
CN(C)[C@@H]1Cc2cccc3ncn(c23)C1 | 1280 nM | > 3520 nM | 2950 nM | Partially active | 0.073 mg/kg | 0.073 mg/kg |  |  |  | Metabolism [4]: Partially active; Metabolism [7]: Partially active; Metabolism [8]: Partially active; Metabolism (Canis familiaris [9]): Partially active; Relative stability (Rattus norvegicus [10]): 1; Metabolism (Rattus norvegicus [11]): Partially active; Metabolism (Mus musculus [12]): Partially active; Metabolism [13]: Partially active
CN(C)[C@H]1Cc2cccc3nc(O)n(c23)C1 |  |  |  |  | 17.3 mg/kg |  | Not Active | Not Active | Not Active | 
CN[C@@H]1Cc2cccc3[nH]c(=O)n(c23)C1 [SUMANIROLE] |  | 73 nM | 2330 nM | Partially active | 0.73 mg/kg | 0.41 mg/kg |  |  |  | Metabolism (Rattus norvegicus [18]): Partially active; Metabolism (Mus musculus [19]): Partially active; Metabolism [20]: Partially active; Metabolism [21]: Partially active
CN[C@@H]1Cc2cccc3ncn(c23)C1 | 355 nM | > 3260 nM | 2460 nM | Partially active | 0.31 mg/kg | 0.73 mg/kg |  |  |  | Metabolism (Mus musculus [19]): Partially active; Metabolism [22]: Partially active; Metabolism [23]: Partially active; Metabolism (Rattus norvegicus [24]): Partially active; Relative stability (Rattus norvegicus [10]): 0.86; Metabolism [25]: Partially active; Metabolism [26]: Partially active; Metabolism (Canis familiaris [27]): Partially active
CN(C)[C@@H]1Cc2cccc3[nH]c(=O)n(c23)C1 | 12 nM |  | 1930 nM |  | 0.41 mg/kg | 1.3 mg/kg |  |  |  | Metabolism [28]: Partially active; Metabolism (Rattus norvegicus [24]): Partially active; Metabolism (Mus musculus [29]): Partially active; Metabolism (Canis familiaris [30]): Partially active; Metabolism [31]: Partially active; Metabolism [25]: Partially active; Metabolism [32]: Partially active; Metabolism [26]: Partially active
CN[C@H]1Cc2cccc3nc(O)n(c23)C1 |  |  |  |  |  |  | Not Active | Not Active | Not Active | 
CCCN[C@@H]1Cc2cccc3nc(O)n(c23)C1 |  |  | 36 nM |  | 0.01 mg/kg | 0.41 mg/kg |  |  |  | 
CN(C)[C@H]1Cc2cccc3ncn(c23)C1 |  |  |  |  | 17.3 mg/kg |  | Not Active | Not Active | Not Active | 
CCCN(CCC)CCc1cccc2c1CC(=O)N2 [ROPINIROLE] | 7.2 nM | 1710 nM |  |  |  |  |  |  |  | 
